# Results as given in article PMC7586935 (Journal of Clinical Pharmacology, 2020).
# Where a name gives a salt, the structure may show the parent alone. Read-outs that look alike come from different tables or passages of the source.
# What was measured:
# [1] = system: QTcF interval of healthy volunteers; experiment: Time-matched analysis of placebo-adjusted change from baseline QTcF; type: in vivo, human; conditions: trazodone 140 mg, between 15 minutes and 4 hours postdose
# [2] = system: healthy volunteers; experiment: ECG outlier analyses; type: in vivo, human
# [3] = system: healthy volunteers; experiment: ECG morphological analyses; type: in vivo, human
# [4] = system: healthy volunteers; experiment: Safety assessment: treatment-emergent adverse events; type: in vivo, human
# [5] = mean ± SE, cited from earlier work
# [6] = system: human ether‐a‐go‐go–related gene potassium channels; conditions: in vitro, at clinically relevant plasma concentrations; cited from earlier work
# [7] = system: CYP3A4; conditions: cited from earlier work
# [8] = system: QT/QTc interval of healthy volunteers; experiment: Concentration-QTc
# [9] = 50 mg trazodone HCl with ritonavir (4 doses of 200 mg)
# [10] = 50 mg trazodone HCl, control condition
smiles,measurement,setting,value
"O=c1n(CCCN2CCN(c3cccc(Cl)c3)CC2)nc2ccccn12 [Trazodone, Trazodone hydrochloride]",Increase in the QTcF interval (time-matched analysis),[1],> 10 ms
same,Heart rate: Bradycardic outliers,"[2]; trazodone 20 mg, n = 18",0 n (%)
same,Heart rate: Tachycardic outliers,"[2]; trazodone 20 mg, n = 18",0 n (%)
same,PR interval: Outliers,"[2]; trazodone 20 mg, n = 18",1 (6) n (%)
same,QRS interval: Outliers,"[2]; trazodone 20 mg, n = 18",0 n (%)
same,QTcF >30‐60 ms inc change from baseline,"[2]; trazodone 20 mg, n = 18",0 n (%)
same,QTcF >60 ms inc change from baseline,"[2]; trazodone 20 mg, n = 18",0 n (%)
same,QTcF New >480 ms,"[2]; trazodone 20 mg, n = 18",0 n (%)
same,QTcF New >500 ms,"[2]; trazodone 20 mg, n = 18",0 n (%)
same,Heart rate: Bradycardic outliers,"[2]; trazodone 60 mg, n = 18",0 n (%)
same,Heart rate: Tachycardic outliers,"[2]; trazodone 60 mg, n = 18",1 (6) n (%)
same,PR interval: Outliers,"[2]; trazodone 60 mg, n = 18",0 n (%)
same,QRS interval: Outliers,"[2]; trazodone 60 mg, n = 18",0 n (%)
same,QTcF >30‐60 ms inc change from baseline,"[2]; trazodone 60 mg, n = 18",1 (6) n (%)
same,QTcF >60 ms inc change from baseline,"[2]; trazodone 60 mg, n = 18",0 n (%)
same,QTcF New >480 ms,"[2]; trazodone 60 mg, n = 18",0 n (%)
same,QTcF New >500 ms,"[2]; trazodone 60 mg, n = 18",0 n (%)
same,Heart rate: Bradycardic outliers,"[2]; trazodone 140 mg, n = 20",1 (5) n (%)
same,Heart rate: Tachycardic outliers,"[2]; trazodone 140 mg, n = 20",2 (10) n (%)
same,PR interval: Outliers,"[2]; trazodone 140 mg, n = 20",1 (5) n (%)
same,QRS interval: Outliers,"[2]; trazodone 140 mg, n = 20",0 n (%)
same,QTcF >30‐60 ms inc change from baseline,"[2]; trazodone 140 mg, n = 20",6 (30) n (%)
same,QTcF >60 ms inc change from baseline,"[2]; trazodone 140 mg, n = 20",0 n (%)
same,QTcF New >480 ms,"[2]; trazodone 140 mg, n = 20",2 (10) n (%)
same,QTcF New >500 ms,"[2]; trazodone 140 mg, n = 20",0 n (%)
same,New ST‐segment depression changes,"[3]; trazodone 20 mg, n = 18",0 n (%)
same,New ST‐segment elevation changes,"[3]; trazodone 20 mg, n = 18",0 n (%)
same,New second‐degree heart block,"[3]; trazodone 20 mg, n = 18",0 n (%)
same,New third‐degree heart block,"[3]; trazodone 20 mg, n = 18",0 n (%)
same,New ST‐segment depression changes,"[3]; trazodone 60 mg, n = 18",1 (6) n (%)
same,New ST‐segment elevation changes,"[3]; trazodone 60 mg, n = 18",0 n (%)
same,New second‐degree heart block,"[3]; trazodone 60 mg, n = 18",0 n (%)
same,New third‐degree heart block,"[3]; trazodone 60 mg, n = 18",0 n (%)
same,New ST‐segment depression changes,"[3]; trazodone 140 mg, n = 20",0 n (%)
same,New ST‐segment elevation changes,"[3]; trazodone 140 mg, n = 20",0 n (%)
same,New second‐degree heart block,"[3]; trazodone 140 mg, n = 20",0 n (%)
same,New third‐degree heart block,"[3]; trazodone 140 mg, n = 20",0 n (%)
same,"Dizziness, frequency of subjects",[4]; trazodone 20 mg,0%
same,"Somnolence, frequency of subjects",[4]; trazodone 20 mg,44.4%
same,"Dizziness, frequency of subjects",[4]; trazodone 60 mg,5.6%
same,"Somnolence, frequency of subjects",[4]; trazodone 60 mg,50.0%
same,"Headache, frequency of subjects",[4]; trazodone 140 mg,10%
same,"Somnolence, frequency of subjects",[4]; trazodone 140 mg,85.0%
same,"Vomiting, frequency of subjects",[4]; trazodone 140 mg,10%
same,"Treatment-related ECG QT prolongation, frequency of subjects","[4]; trazodone 140 mg, 1 subject",5%
same,"Treatment-related abdominal discomfort, frequency of subjects","[4]; trazodone 140 mg, 1 subject",5%
same,"Treatment-related hypertension, frequency of subjects","[4]; trazodone 140 mg, 1 subject",5%
same,"Treatment-related hypotension, frequency of subjects","[4]; trazodone 140 mg, 1 subject",5%
same,"Treatment-related palpitations, frequency of subjects","[4]; trazodone 140 mg, 1 subject",5%
same,Elimination half-life,[5]; [9],14.9 ± 3.9 h
same,Peak plasma concentrations,[5]; [9],1125 ± 111 ng/mL
same,Elimination half-life,[5]; [10],6.7 ± 0.7 h
same,Peak plasma concentrations,[5]; [10],842 ± 64 ng/mL
same,Inhibition of hERG potassium channels,[6],potent dose‐dependent inhibition
same,Metabolic pathway,[7],primarily metabolized by CYP3A4
same,"Predicted Mean Effect at Mean Cmax (placebo-corrected change from baseline QTcF, ΔΔQTcF)","[8]; trazodone 60 mg, mean Cmax 1269.0 ng/mL",12.3 ms
same,"Predicted Mean Effect at Mean Cmax (placebo-corrected change from baseline QTcF, ΔΔQTcF)","[8]; trazodone 140 mg, mean Cmax 2083.5 ng/mL",19.8 ms
